# Reference: patent US20110117164A1, “Use of Additive Sites to Control Nitric Oxide Release from Nitric Oxide Donors Contained within Polymers” (priority 2004, published 2011)
# Tests used:
# [1] = Storage stability of polymer films containing diazeniumdiolate (NO release after storage); format: physicochemical; conditions: 4 weeks
# Experimental: To determine if polymer films containing such diazeniumdiolates would also remain stable, NO release measurements were conducted for films containing 29 wt. % PVC, 60 wt. % plasticizer (DOS), 4.4 wt. % compound 2d and 6.6 wt. % KTpClPB under two storage conditions: a) room temperature under nitrogen and b) ambient conditions. Initial NO release measurements were performed for freshly prepared films. Additional NO release measurements were conducted for both storage conditions after 1, 2 and 4 weeks. […] The loss of NO may be due in part to the slow decomposition of the diazeniumdiolate within the polymer matrix owing to permeation of water vapor into the polymer film. Although this loss represents a significant percentage of the total NO releasing capability of the film, such films still yield NO surface fluxes higher than that of stimulated endothelial cells (i.e., 4·10^−10 mol·cm^−2·min^−1). However, films stored under a dry nitrogen environment at room temperature maintained 99% of their NO release after a 4-week period.
# [2] = Organic phase pH of polymer films monitored with chromoionophore II (UV-Vis); format: physicochemical; conditions: PVC films with 5 wt. % donor, PBS buffer; protonated 650 nm, deprotonated 514 nm
# Source text: To determine, experimentally, if the pH within the film was changing with time, a lipophilic pH chromoionophore was incorporated into PVC films containing 5 wt. % of 2d, both in the presence and absence of KTpClPB. The intensity of the UV-Vis absorbances corresponding to the protonated (λmax=650 nm) and deprontonated (λmax=514 nm) peaks of the chromoionophore were monitored with time spectrophotometrically. […] This further supports the notion that as NO is being released from within the polymer phase, the unreacted diazeniumdiolate groups may require a buffering system to prevent the film from becoming too basic, which in turn may slow further diazeniumdiolate decomposition.
# General Procedure for Deprotection to Form Diamine Copolymer (c). 35 mg of the copolymer (b) was dissolved in 2 mL of dichloromethane and then 200 μL of TFA (trifluoroacetic acid) was added dropwise. The solution was stirred at room temperature for about 3 hours. […] The data was recorded as a concentration of NO in PPB or PPM. The total amount of NO released (in moles) was determined by multiplying a constant (specific to each instrument, units of mol ppm^−1 s^−1) by the time interval that data was collected and the concentration. pH Experiments. […]
smiles,measurement,setting,value
"CCCCNCCCCCCN(CCCC)/[N+]([O-])=N/O [Compound 2d, (Z)-1-{N-Butyl-N-[6-(N-butylammoniohexyl)amino]}-diazen-1-ium-1,2-diolate]",theoretical total NO release achieved after storage,"[1]; film 29 wt. % PVC, 60 wt. % DOS, 4.4 wt. % donor, 6.6 wt. % KTpClPB, ambient conditions",62%
same,NO surface flux of films after ambient storage (vs stimulated endothelial cells),[1]; films stored under ambient conditions,> 4·10^−10 mol·cm^−2·min^−1
same,NO release maintained after storage,"[1]; same film, dry nitrogen environment at room temperature",99%
same,"change of chromoionophore peaks with exposure time, films containing KTpClPB",[2],the intensity of the protonated peak remains constant
same,"change of chromoionophore peaks with exposure time, films without KTpClPB",[2],an increase in the absorbance of the deprotonated peak and a decrease in the protonated peak
